This is an account of results in patent US11098083B2, “Peptide that regulates fat metabolism and method for regulating fat metabolism” (SHENZHEN INSTITUTES OF ADVANCED TECHNOLOGY, priority 2017, dated 2021).

The target of assay [1] is T1, GPRC6A (Homo sapiens, UniProt Q5T6X5).
T1 construct: expressed in transfected cells; host or cells: Hela cells (transfected with Lipofectamine 2000)
T1 sequence (Q5T6X5 19-926): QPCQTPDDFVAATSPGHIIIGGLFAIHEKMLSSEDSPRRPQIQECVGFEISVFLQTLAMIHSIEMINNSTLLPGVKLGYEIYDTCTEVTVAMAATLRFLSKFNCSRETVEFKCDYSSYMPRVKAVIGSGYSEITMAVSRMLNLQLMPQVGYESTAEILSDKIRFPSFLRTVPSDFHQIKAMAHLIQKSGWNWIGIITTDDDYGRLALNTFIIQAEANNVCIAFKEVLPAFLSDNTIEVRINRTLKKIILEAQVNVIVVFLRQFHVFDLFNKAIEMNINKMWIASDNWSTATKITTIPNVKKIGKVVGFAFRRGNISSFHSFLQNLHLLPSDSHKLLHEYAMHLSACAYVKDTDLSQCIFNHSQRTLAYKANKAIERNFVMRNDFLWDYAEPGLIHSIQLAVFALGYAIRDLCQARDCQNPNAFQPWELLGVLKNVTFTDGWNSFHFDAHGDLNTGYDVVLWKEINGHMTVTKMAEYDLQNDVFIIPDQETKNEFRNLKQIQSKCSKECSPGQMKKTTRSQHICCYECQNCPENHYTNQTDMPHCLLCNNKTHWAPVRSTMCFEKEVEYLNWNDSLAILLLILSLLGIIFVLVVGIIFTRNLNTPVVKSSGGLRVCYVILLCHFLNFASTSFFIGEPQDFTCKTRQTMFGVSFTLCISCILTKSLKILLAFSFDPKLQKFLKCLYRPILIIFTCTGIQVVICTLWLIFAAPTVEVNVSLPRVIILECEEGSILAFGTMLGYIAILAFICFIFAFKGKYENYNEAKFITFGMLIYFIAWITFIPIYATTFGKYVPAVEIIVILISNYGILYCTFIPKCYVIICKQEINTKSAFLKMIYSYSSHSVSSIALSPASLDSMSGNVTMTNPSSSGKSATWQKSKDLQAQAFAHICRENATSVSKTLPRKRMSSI
The assay is described as follows: internalization of GPRC6A with Cy5-labelled peptides in hGPRC6A-overexpressed Hela cells. The following applies: 100 nM, 37° C., 30 minutes, confocal microscope, FIG. 6C. The format is cell-based. The procedure: S230: Cy5-labelled OCN, Cy5-labelled hOCN22, and Cy5-labelled ISAP^2 may promote internalization of GPRC6A in the GPRC6A-overexpressed Hela cells.
The hGPRC6A-expressed Hela cell suspension may be plated at a density of 1.6×10^5/ml into a 24-well tray, and each well of the tray may be pre-placed with a gelatin-coated coverslip. 0.5 mL of media containing the cells may be added into each well, and the cells may be incubating at 37° C. and 5% CO2 for 24 hours. The cells may be starved for 4 h in serum-free media before any treatment, and then 100 nM of Cy5-OCN, 100 nM of Cy5-hOCN22, and 100 nM of Cy5-ISAP2 may be added to each well respectively to incubate with the cells at 37° C. for 30 minutes. The cells may be fixed by polyoxymethylene for 30 minutes. Afterwards, Triton X may be added to incubate with the cells for 10 minutes. The cells may be stained with 4′,6-diamidino-2-phenylindole (DAPI, Sigma) for 10 seconds as per manufacturer's instructions, and observed and photographed by a fluorescence confocal microscope.

In assay [2] the test system is wild-type C57BL/6 mice. The experiment in a line: gavage of ISAP4, ISAP5, ISAP6: intestinal absorption of fat (olive oil) in normal mice. The class given is in vivo. The following applies: gavage 2 pmol/g daily one week, day 8 olive oil 200 μl, compared with saline control group, FIG. 9. From the text: S410: effects of acute gavage of ISAP4, ISAP5, and ISAP6 on intestinal absorption of fat in normal mice may be studied.
15 male wild-type C57BL/6 mice of 6 weeks old may be divided into 5 groups, 3 in each group. There may be 3 experimental groups, and the mice in the 3 experimental groups may be administered with ISAP4, ISAP5, and ISAP6 at 2 pmol/g of body weight respectively. The mice in two control groups may be gavaged with an equal volume of normal saline daily for one week. On the 8th day of the experiment, 30 minutes after gavage of ISAP4, ISAP5, ISAP6 and normal saline respectively, the mice in the three experimental groups may be gavaged with 200 μl of sterilized olive oil, the mice in one of the control groups may also be intragstrically administered with 200 μl of sterilized olive oil to be a saline control group, and the mice in the other one of the control groups may further be gavaged with 200 μl of normal saline to be a negative control group. After 50 minutes, each mouse may be euthanized using 95% CO2 and dissected to obtain small intestines. The jejunum near the duodenum may be frozen and sliced, stained with oil red O, and counterstained with hematoxylin. An oil red O-positive area may be quantified by the ImageJ software under double-blind conditions and a ratio of the oil red O-positive area to a total area of the intestinal villi may be calculated. Statistical analysis may be performed to compare with the mince in the saline+olive oil group. ***: p<0.001. N=3.
The oil red O-positive area may be quantified by the ImageJ software under double-blind conditions and the ratio of the oil red O-positive area to the total area of the intestinal villi may be calculated. […] Meanwhile, referring to the sequence comparison shown in FIG. 8, it can be seen that SEQ ID NO. 12: PVPYPDPLEP, SEQ ID NO. 15: SVPSPDPLEP, SEQ ID NO. 13: PYPDPLEP and SEQ ID NO. 16: PSPDPLEP are highly similar in sequence, and these sequences may be very conservative in various species. […]

In assay [3] the target is T2, human GPRC6A (hGPRC6A) (Homo sapiens, UniProt Q5T6X5).
T2 construct: expressed in transfected cells; host or cells: Hela cells (transfected with Lipofectamine 2000)
T2 sequence (Q5T6X5 19-926): T1 sequence (Q5T6X5 19-926)
The assay is described as follows: fluorescent binding of OCN peptides to cell membranes of Hela cells with hGPRC6A overexpressed. The following applies: cell membranes of Hela cells with hGPRC6A overexpressed, FIG. 6B. The procedure:
S131: overexpression of hGPRC6A in Hela cells may be established.
1) Cell plating: A Hela cell suspension may be plated at a density of 1.6×10^5 cells/mL into a 6-well tray with 2 mL of DMEM per well, incubating at 37° C. and 5% CO2 for 24 hours.
2) A vector carrying hGPRC6A (pReceiver-M61) may be transfected into the Hela cells for overexpression, using Lipofectamine 2000 (Invitrogen) as per manufacturer's instructions, and media containing the vector may be replaced by normal media 4 hours later.
3) After the transfection, the cells may be cultured in the normal media for another 48 hours, and the normal media may be discarded. The cells attached on a bottom of each well may be washed twice with sterile PBS, and 300 μl of TRIzol solution may be added into each well. Cellular RNAs may be extracted as per RNAiso Plus (TaKaRa) instructions, and after a DNase treatment, may be reversely transcribed into cDNAs using DNAEngine and a SuperScript™ (Invitrogen, Canada) kit. The cDNAs may be used as a template, and real-time monitoring and analysis may be performed to fluorescent PCR products at various time points using a SYBR Green (Light Cycler Roche, Germany) method to detect expression levels of the hGPRC6A. […] The selected cell strain may then be detected for its gene expression by qPCR. […]

For assay [4], the system named is HFD mice. The experiment in a line: gavage of peptides in HFD mice for 7 weeks: body weight. The following applies: gavage 2 pmol/g of body weight for 7 weeks, compared with HFD control group, FIG. 7A. The format is in vivo, C57BL/6 mice. The source says: Six-week-old male wild-type C57BL/6 mice may be divided into 6 groups, 6 mice in each group. Group #1 may be provided with ND, and groups #2 to #6 may be provided with HFD. Group #2 may be treated as a HFD control group. Groups #3 to #6 may be experimental groups, and mice ingroups #3 to #6 may be gavaged with OCN, ISAP1, ISAP2, and ISAP3 respectively at 2 pmol/g of body weight for 7 weeks. Body weight of each mouse may be monitored and measured once a week.
Six-week-old male wild-type C57BL/6 mice may be divided into 6 groups, 6 in each group. Group #1 may be provided with ND to be a ND control group, and groups #2 to #6 may be provided with HFD. Group #2 may be treated as a HFD control group. Groups #3 to #6 may be treated as experimental groups and may be gavaged with OCN, ISAP1, ISAP2, and ISAP3 respectively at 2 pmol/g of body weight daily for 7 weeks. Body weight may be monitored and measured once a week.
Six-week-old male wild-type C57BL/6 mice may be divided into 6 groups, 6 in each group. Group #1 may be provided with ND to be a ND control group, groups #2 to #6 may be provided with HFD. Group #2 may be treated as a HFD control group. Groups #3 to #6 may be treated as experimental groups, and may be gavaged with OCN, ISAP1, ISAP2, and ISAP3 respectively at 2 pmol/g of body weight daily for 7 weeks. A body weight of each mouse may be monitored and measured once a week.

Assay [5] relates to HFD mice. The experiment in a line: gavage of peptides in HFD mice: triglyceride in feces, week 7. The format is in vivo, C57BL/6 mice. The following applies: gavage 2 pmol/g, feces of week 7, compared with HFD control group, FIG. 7B. The procedure: Feces of each mouse may be collected in week 7, baked at 60° C. for 3 days to ensure complete dryness. Then, 1 mg of the feces may be collected and soaked in 1 ml of a mixed solution consisting of chloroform and methanol in a ratio of 2:1. The soaked feces may then be disrupted with a tissue homogenizer and centrifuged to obtain a supernatant. The supernatant may be detected for triglyceride by the Roche blood biochemical analyzer. Experimental results are shown in FIG. 7B. **: P<0.01, ***: P<0.001.
Feces of the mice may be collected in the 7th week of the experiment and baked at 60° C. for 3 days to ensure complete dryness. Then, 1 mg of the feces may be weighed and soaked in 1 ml of a mixed solution containing chloroform and methanol in a ratio of 2:1. The feces with the mixed solution may be disrupted by a tissue homogenizer and centrifuged to obtain a supernatant. The supernatant may be detected for triglyceride by the Roche blood biochemical analyzer.
Feces of the mice may be collected in the 7th week of the experiment and baked at 60° C. for 3 days to ensure complete dryness. Then, 1 mg of the feces may be weighed and soaked in 1 ml of a mixed solution containing chloroform and methanol in a ratio of 2:1.The feces with the mixed solution may be disrupted by a tissue homogenizer and centrifuged to obtain a supernatant. The supernatant may be detected for triglyceride by the Roche blood biochemical analyzer.
Feces of each mouse may be collected in the 7th week of the experiment, and baked at 60° C. for 3 days to ensure complete dryness. 1 mg of the feces may be weighed and soaked in 1 ml of a mixed solution containing chloroform and methanol in a ratio of 2:1. The feces in the mixed solution may be disrupted by a tissue homogenizer and centrifuged to obtain a supernatant. The supernatant may be detected for triglyceride by the Roche blood biochemical analyzer.

Ends that are not written are not given here.

Consider “Cy5-ISAP2: Cy-5-labeled SEQ ID NO.2 (ISAP2) (YLYQWLGAPVPYPDPLEP; also: Cy5 label, position not given here; listed as Homo sapiens)”, for which the “distribution of Cy5-labelled peptide (internalization)” value in assay [1] is “distributed inside the cell”.

Consider “Cy5-OCN: Cy-5-labeled OCN (osteocalcin protein) (YLYQWLGAPVPYPDPLEPRREVCELNPDCDELADHIGFQEAYRRFYGPV; ends and bridges not checked; also: Cy5 label, position not given here; UniProt P02818 52-100, looked up) [reference compound]”, for which the “distribution of Cy5-labelled peptide (internalization)” value in assay [1] is given as “distributed inside the cell”.

For the substance PDPLEP [ISAP6], the “absorption of olive oil in the mice (oil red O-positive area / total area of intestinal villi)” value in assay [2] is “effectively reduce the absorption of olive oil”.

Turning to PSPDPLEP [ISAP5], the “absorption of olive oil in the mice (oil red O-positive area / total area of intestinal villi)” value in assay [2] is given as “effectively reduce the absorption of olive oil”.

For SVPSPDPLEP [ISAP4], the “absorption of olive oil in the mice (oil red O-positive area / total area of intestinal villi)” value in assay [2] was “effectively reduce the absorption of olive oil”.

For YLYQWLGASVPSPDPLEP [ISAP2], the “ability of binding with cell membranes, compared with hOCN” value in assay [3] is on record as “consistent with that of hOCN”. Further, in assay [4], the body weight result was “significant weight loss”. The “content (level) of triglyceride in the feces” value in assay [5] is on record as “significantly increased”.

Turning to YLYQWLGASVPSPDPLEPR [ISAP3], the body weight result in assay [4] is recorded as “significant weight loss”. Further, in assay [5], the “content (level) of triglyceride in the feces” value is “significantly increased”.
